pIC50: −log10 of the molar value. ≈ marks a conversion by molar mass, not a printed value. Calls of active or inactive are those of the source. No cut-off for these calls is given here.
Assays:
[1] = AUC (0 to infinity) in Sprague-Dawley rat at 5 mg/kg, po and measured upto 24 hrs by LC-MS analysis; type: ADME, organism-based; design: time < 24 hrs, dose 5 mg/kg, route po; conditions: in vivo
[2] = Protein binding in Beagle dog plasma at 1 uM incubated for 6 hrs by dialysis based LC-MS/MS analysis; type: ADME, cell-free, Canis lupus familiaris; conditions: read-out: PPB (converted)
Cytochrome P450 2C9 = Cytochrome P450 2C9 (Homo sapiens, UniProt P11712); experiment: Inhibition of CYP2C9 in human liver microsomes using […] as substrate preincubated for 5 mins followed by NADPH addition and measured after 120 mins by LC-MS/MS analysis; type: ADME, Microsome
Chain of Cytochrome P450 2C9 (P11712 whole entry): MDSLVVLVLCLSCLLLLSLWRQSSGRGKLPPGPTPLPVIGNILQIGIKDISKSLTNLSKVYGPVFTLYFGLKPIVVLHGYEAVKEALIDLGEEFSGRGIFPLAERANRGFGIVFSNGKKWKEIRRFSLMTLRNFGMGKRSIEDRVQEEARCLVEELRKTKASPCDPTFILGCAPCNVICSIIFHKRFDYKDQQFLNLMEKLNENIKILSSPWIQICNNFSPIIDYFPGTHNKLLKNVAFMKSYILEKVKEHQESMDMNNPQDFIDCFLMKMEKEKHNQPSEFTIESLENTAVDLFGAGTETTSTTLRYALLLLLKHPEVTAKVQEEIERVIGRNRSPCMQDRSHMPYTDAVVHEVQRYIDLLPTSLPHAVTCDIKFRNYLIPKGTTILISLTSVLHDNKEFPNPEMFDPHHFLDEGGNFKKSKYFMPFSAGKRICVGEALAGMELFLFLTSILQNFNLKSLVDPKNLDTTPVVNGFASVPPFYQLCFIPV

LoVo [3] = experiment: Antiproliferative activity against ATM-deficient human LoVo cells assessed as reduction in cell proliferation at 0.1 to 25 uM incubated for 3 days by MTT assay; type: functional, cell-based; conditions: dose 0.1-25 µM, time 3.0 day
[4] = Cmax in Sprague-Dawley rat at 5 mg/kg, po and measured upto 24 hrs by LC-MS analysis; type: ADME, organism-based; design: time < 24 hrs, dose 5 mg/kg, route po; conditions: in vivo
[5] = Clearance in Sprague-Dawley rat at 1 mg/kg, iv and measured upto 24 hrs by LC-MS analysis; type: ADME, organism-based; conditions: in vivo
HCT-116 [6] = experiment: Antiproliferative activity against ATM-proficient human HCT-116 cells assessed as reduction in cell viability incubated for 3 days in presence of AZD-1390 by MTT assay; type: functional, cell-based; conditions: HCT-116, 72 h
HCT-116 [7] = experiment: Antiproliferative activity against ATM-proficient human HCT-116 cells assessed as reduction in cell viability incubated for 3 days by MTT assay; type: functional, cell-based; conditions: HCT-116, 72 h
[8] = Apparent permeability across apical to basolateral side in human Caco-2 cells by bidirectional permeability assay; type: ADME, cell-based
Cytochrome P450 2D6 = Cytochrome P450 2D6 (Homo sapiens, UniProt P10635); experiment: Inhibition of CYP2D6 in human liver microsomes using […] as substrate preincubated for 5 mins followed by NADPH addition and measured after 120 mins by LC-MS/MS analysis; type: ADME, Microsome
Chain of Cytochrome P450 2D6 (P10635 whole entry): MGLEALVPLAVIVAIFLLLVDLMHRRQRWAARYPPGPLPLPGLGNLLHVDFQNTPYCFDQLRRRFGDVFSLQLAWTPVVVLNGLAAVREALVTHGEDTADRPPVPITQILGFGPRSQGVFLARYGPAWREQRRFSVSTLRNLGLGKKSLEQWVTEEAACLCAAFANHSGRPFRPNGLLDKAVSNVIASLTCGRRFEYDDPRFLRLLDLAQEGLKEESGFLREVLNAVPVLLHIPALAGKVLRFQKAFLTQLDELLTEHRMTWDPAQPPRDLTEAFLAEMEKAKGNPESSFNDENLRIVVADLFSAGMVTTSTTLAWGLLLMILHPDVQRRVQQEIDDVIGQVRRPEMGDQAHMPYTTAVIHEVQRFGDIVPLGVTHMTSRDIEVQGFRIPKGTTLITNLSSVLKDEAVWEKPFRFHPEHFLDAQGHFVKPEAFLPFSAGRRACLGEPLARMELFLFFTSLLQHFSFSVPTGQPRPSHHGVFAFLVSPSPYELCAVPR

in vitro [9] = conditions: human, liver microsomes
A549 = experiment: Synergistic antiproliferative activity against ATM-proficient human A549 cells assessed as reduction in cell viability incubated for 3 days in presence of oxaliplatin by MTT assay; type: functional, cell-based; conditions: A549, 72 h
[10] = Aqueous solubility of compound at pH 2.0 by HPLC-MS/MS analysis; type: physicochemical; conditions: aqueous medium
Cytochrome P450 3A4 = Cytochrome P450 3A4 (Homo sapiens, UniProt P08684); experiment: Inhibition of CYP3A4 in human liver microsomes using […] as substrate preincubated for 5 mins followed by NADPH addition and measured after 120 mins by LC-MS/MS analysis; type: ADME, Microsome
Chain of Cytochrome P450 3A4 (P08684 whole entry): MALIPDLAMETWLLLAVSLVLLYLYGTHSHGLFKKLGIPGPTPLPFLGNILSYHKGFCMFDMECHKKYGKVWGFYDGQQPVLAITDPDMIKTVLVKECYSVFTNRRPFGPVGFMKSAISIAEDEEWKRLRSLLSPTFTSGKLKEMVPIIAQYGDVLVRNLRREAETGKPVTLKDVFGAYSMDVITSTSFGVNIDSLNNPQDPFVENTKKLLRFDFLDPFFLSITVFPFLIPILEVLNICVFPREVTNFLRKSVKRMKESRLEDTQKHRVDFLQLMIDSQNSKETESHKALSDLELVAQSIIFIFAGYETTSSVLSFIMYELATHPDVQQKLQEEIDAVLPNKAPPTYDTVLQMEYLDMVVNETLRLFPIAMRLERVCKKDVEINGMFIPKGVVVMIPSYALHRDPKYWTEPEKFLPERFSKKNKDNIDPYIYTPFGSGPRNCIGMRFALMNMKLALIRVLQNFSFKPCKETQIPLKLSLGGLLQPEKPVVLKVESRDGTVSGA

[11] = AUCt in Sprague-Dawley rat at 1 mg/kg, iv and measured upto 24 hrs by LC-MS analysis; type: ADME, organism-based; design: dose 1 mg/kg, time < 24 hrs, route iv; conditions: in vivo
[12] = biological target: Serine/threonine-protein kinase mTOR (Homo sapiens, UniProt P42345); experiment: Inhibition of mTOR (unknown origin) using peptide as substrate preincubated for 10 mins followed by substrate addition by microplate reader analysis
OVCAR-3 = experiment: Antiproliferative activity against ATM-deficient human OVCAR-3 cells assessed as reduction in cell viability incubated for 3 days by MTT assay; type: functional, cell-based; conditions: OVCAR-3, 72 h
in vitro [13] = conditions: rat, liver microsomes
HT-29 = experiment: Antiproliferative activity against ATM-proficient human HT-29 cells assessed as reduction in cell proliferation at 0.5 to 22 uM incubated for 3 days by MTT assay; type: functional, cell-based; conditions: dose 0.5-22 µM, time 3.0 day
[14] = AUC(0 to infinity) in Sprague-Dawley rat at 1 mg/kg, iv and measured upto 24 hrs by LC-MS analysis; type: ADME, organism-based; design: time < 24 hrs, dose 1 mg/kg, route iv; conditions: in vivo
HCT-116 [15] = experiment: Synergistic antiproliferative activity against ATM-proficient human HCT-116 cells assessed as reduction in cell viability incubated for 3 days in presence of cisplatin by MTT assay; type: functional, cell-based; conditions: HCT-116, 72 h
[16] = Oral bioavailability in Sprague-Dawley rat at 5 mg/kg and measured upto 24 hrs by LC-MS analysis; type: ADME, organism-based; conditions: in vivo
in vitro [17] = conditions: rat, liver microsomes; remark: listed apart in the source
[18] = biological target: Phosphatidylinositol 4,5-bisphosphate 3-kinase catalytic subunit alpha isoform (Homo sapiens, UniProt P42336); experiment: Inhibition of PI3Kalpha (unknown origin) using peptide as substrate preincubated for 10 mins followed by substrate addition by microplate reader analysis
Chain of Phosphatidylinositol 4,5-bisphosphate 3-kinase catalytic subunit alpha isoform (P42336 whole entry, canonical isoform): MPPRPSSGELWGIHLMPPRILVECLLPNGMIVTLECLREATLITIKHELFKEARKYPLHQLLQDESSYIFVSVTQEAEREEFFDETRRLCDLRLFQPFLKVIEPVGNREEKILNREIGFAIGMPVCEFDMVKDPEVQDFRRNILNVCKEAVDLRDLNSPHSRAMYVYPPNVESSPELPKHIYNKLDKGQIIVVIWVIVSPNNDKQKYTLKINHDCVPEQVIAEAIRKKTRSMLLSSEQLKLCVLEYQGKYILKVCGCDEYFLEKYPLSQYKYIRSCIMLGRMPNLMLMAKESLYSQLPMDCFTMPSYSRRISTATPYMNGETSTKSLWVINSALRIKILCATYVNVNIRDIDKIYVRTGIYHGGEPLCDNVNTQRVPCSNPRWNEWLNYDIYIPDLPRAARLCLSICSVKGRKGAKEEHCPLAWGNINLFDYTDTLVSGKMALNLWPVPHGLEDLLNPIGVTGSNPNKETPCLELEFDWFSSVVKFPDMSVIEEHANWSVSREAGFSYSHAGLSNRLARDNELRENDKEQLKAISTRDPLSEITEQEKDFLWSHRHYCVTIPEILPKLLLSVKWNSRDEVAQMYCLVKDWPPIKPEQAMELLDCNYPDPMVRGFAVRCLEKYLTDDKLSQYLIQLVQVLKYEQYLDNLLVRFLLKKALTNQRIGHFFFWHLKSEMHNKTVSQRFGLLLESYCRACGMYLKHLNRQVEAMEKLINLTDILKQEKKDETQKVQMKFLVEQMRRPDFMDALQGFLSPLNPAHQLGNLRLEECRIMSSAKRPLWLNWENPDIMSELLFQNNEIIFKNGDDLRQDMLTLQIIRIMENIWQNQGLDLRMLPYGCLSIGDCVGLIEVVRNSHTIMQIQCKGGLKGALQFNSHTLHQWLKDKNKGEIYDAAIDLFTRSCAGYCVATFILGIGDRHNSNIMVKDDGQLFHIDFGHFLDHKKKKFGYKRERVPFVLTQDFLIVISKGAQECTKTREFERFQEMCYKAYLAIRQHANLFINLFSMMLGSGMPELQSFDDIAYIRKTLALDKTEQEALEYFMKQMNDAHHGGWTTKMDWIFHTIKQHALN

LoVo [19] = experiment: Inhibition of colony formation of ATM-deficient human LoVo cells at 0.3 to 1 uM incubated for 2 weeks by crystal violet staining based assay; type: functional, cell-based; conditions: dose 0.3-1 µM
[20] = Protein binding in human plasma at 1 uM incubated for 6 hrs by dialysis based LC-MS/MS analysis; type: ADME, cell-free; conditions: read-out: PPB (converted)
[21] = Half life in Sprague-Dawley rat at 1 mg/kg, iv and measured upto 24 hrs by LC-MS analysis; type: ADME, organism-based; conditions: in vivo
[22] = MRT (0 to infinity) in Sprague-Dawley rat at 1 mg/kg, iv and measured upto 24 hrs by LC-MS analysis; type: ADME, organism-based; conditions: in vivo
[23] = Tmax in Sprague-Dawley rat at 5 mg/kg, po and measured upto 24 hrs by LC-MS analysis; type: ADME, organism-based; conditions: in vivo
[24] = Apparent permeability across basolateral to apical side in human Caco-2 cells by bidirectional permeability assay; type: ADME, cell-based

Compound	AUC(0-inf) [1] [ng·h/mL]	fraction unbound at 6 h, 1 µM [2]	pIC50 (Cytochrome P450 2C9)	Cmax [4] [ng/mL]	clearance [5] [mL/min/kg]	pIC50 (HCT-116 [6])	pIC50 (HCT-116 [7])	Papp A→B [8] [×10⁻⁶ cm/s]	pIC50 (Cytochrome P450 2D6)	microsomal CLint at 1 h, 1 µM (in vitro [9]) [µL/min/mg]	pIC50 (A549)	solubility [10] [µM]	pIC50 (Cytochrome P450 3A4)	AUC(0-t) at 24 h [11] [ng·h/mL]	pIC50 [12]	pIC50 (OVCAR-3)	microsomal CLint at 1 h, 1 µM (in vitro [13]) [µL/min/mg]	AUC(0-inf) [14] [ng·h/mL]	pIC50 (HCT-116 [15])	bioavailability [16] [%]	also measured
C[C@@H]1COCCN1c1nc(-c2cccc3[nH]ccc23)nc2c1CN(C(=O)c1cccc(S(C)(=O)=O)c1)C2(C)C	1750	0.022	5.00	282	14.2	9.00	7.39	8.23	< 5.00	407	6.94	84.3 (≈ 46 µg/mL)	5.00	1160	7.74	7.01	66.2	1170	7.62	30	Activity (LoVo [3]): Dose-Dependent Effect; Activity (HT-29): Dose-Dependent Effect; half-life at 1 h, 1 µM (in vitro [17]): 0.35 h; pIC50 [18]: 6.00; inhibition (LoVo [19]): Active; fraction unbound at 6 h, 1 µM [20]: 0.003; half-life [21]: 1.32 h; MRT inf [22]: 1.45 h; Tmax [23]: 2 h; Papp B→A [24]: 16.7 ×10⁻⁶ cm/s
C[C@@H]1COCCN1c1nc(-c2cccc3[nH]ccc23)nc2c1CN(C(=O)c1ccc3c(c1)OCO3)C2(C)C	6170	0.005	5.00	1290	5.97	7.08	6.71	1.91	< 5.00	53.2	6.47	47.6 (≈ 24.4 µg/mL)	6.00	2740	7.48	6.90	35.3	2810	7.03	41.6	half-life at 1 h, 1 µM (in vitro [17]): 0.655 h; pIC50 [18]: 6.00; fraction unbound at 6 h, 1 µM [20]: 0.001; half-life [21]: 1.59 h; MRT inf [22]: 2.19 h; Tmax [23]: 1.67 h; Papp B→A [24]: 2.3 ×10⁻⁶ cm/s
